Test results taken from US20190136191A1, “Methods of Producing Specialized Cardio-Like Cells from Stem Cells” (Emory University, priority 2016, published 2019).

Key:
Human ESCs (H9) [1] = assay: Chamber and heart field marker expression in hESC-derived cardiomyocytes; type: cell-based
From the text: IRX4 and HRT2 are ventricular marker. CoupTFII is an atrial marker. NKX2.5, TBX5, HCN4 are markers of the first heart field, which becomes the left ventricular and atrial cardiac myocytes.
Is11, Mef2c, Fgf8, and Fgf10 are markers of the second heart field, which become right ventricular cardiac myocytes.
(§1) Human ESCs (H9) were differentiated to cardiac lineage by treatment with Activin A, BMP4 and bFGF (ABF, control group) for two days (day 1-2) Mesoderm formation was identified by brachyury (T)+ cells, and the ensuing pan-cardiac myocyte lineage was marked by cTnT+ cells. In control, this process was highly efficient, reaching 75% and 82%, respectively. […] In contrast, late (day 6-9) activation of RA (Late-RA) led to >90% cTnT+ population. […] Furthermore, the Late-RA cardiomyocytes expressed higher transcript and protein levels of the first heart field (FHF) markers, NKX2.5, TBX5 and HCN4.
Reported are specific and robust derivation of the left ventricular-like cells by activating RA signaling during the late stage of hESC differentiation.

hESCs = assay: Differentiation protocols of hESCs to cardio-like cell subtypes (AFB, AFB+RA, Ri+AFB+RA); type: cell-based, human
Description: To create the cardio-like cells from hESCs, at the early stage (day 0-3), hESCs were treated with ActivinA, bFGF and BMP4 to induce mesoderm and cardiac mesoderm cells generation. […] Wnt inhibitor promoted cardiac progenitor cells into cardio-like cells during day 5-11.
To create atrial-like cells from hESCs, at the early stage (day 0-3), hESCs were treated with ActivinA, bFGF and BMP4 to induce mesoderm and cardiac mesoderm cells generation. […] Wnt inhibitor promoted differentiation of cardiac progenitor cells into cardio-like cells during day 5-11.
To create first heart field (FHF) derived left ventricular-like cells from hESCs, at the early stage (day 0-3), hESCs were treated with ActivinA, bFGF, BMP4 and additional short time (day 0-1) treatment of BMS4.93(Ri) to induce mesoderm and cardiac mesoderm cells generation. […] Wnt inhibitor promoted cardiac progenitor cells into cardiomyocytes during day 5-11.

Human ESCs (H9) [2] = assay: Pan-cardiac myocyte lineage formation from hESCs (cTnT+ cells); type: cell-based
From the text: as §1

Human ESCs (H9) [3] = assay: Mesoderm formation during cardiac differentiation of hESCs (brachyury (T)+ cells); type: cell-based
From the text: as §1

[4] = Late-RA cardiomyocytes compared to control
[5] = early inhibition of RA signaling

## CC(C=CC1=C(C)CCCC1(C)C)=CC=CC(C)=CC(=O)O [RA, 3,7-dimethyl-9-(2,6,6-trimethylcyclohexen-1-yl)nona-2,4,6,8-tetraenoic acid]
Human ESCs (H9) [1]; Late-RA cardiomyocytes
  First heart field marker HCN4 transcript and protein levels: higher
  First heart field marker NKX2.5 transcript and protein levels: higher
  First heart field marker TBX5 transcript and protein levels: higher
Human ESCs (H9) [1]; [4]
  Atrial marker CoupTFII expression: down-regulated
  Second heart field marker FGF8 expression: downregulated
  Second heart field marker FGF10 expression: downregulated
  Second heart field marker ISL1 expression: downregulated
  Ventricular marker HRT2 expression: up-regulated
  Ventricular marker IRX4 expression: up-regulated
hESCs; AFB+RA protocol, RA during day 5-8, no early RA inhibitor
  Cell subtype specified: specified atria-like subtypes
hESCs; Ri+AFB+RA protocol, RA during day 5-8 after Ri day 0-1
  Cell subtype specified: specified first heart field (FHF) derived left ventricular-like cell subtypes
Human ESCs (H9) [2]; late (day 6-9) activation of RA (Late-RA)
  cTnT+ population: > 90%
Human ESCs (H9) [3]; early activation of RA
  Generation of mesoderm lineage: failed to generate mesoderm lineage

## CC1(C)CC=C(C#Cc2ccccc2)c2cc(/C=C/c3ccc(C(=O)O)cc3)ccc21 [BMS-189493, (E)-4-(2-(5,5-dimethyl-8-(phenylethynyl)-5,6-dihydronaphthalen-2-yl)vinyl)benzoic acid]
Human ESCs (H9) [2]; [5]
  Mesodermal cells that failed to become cardiac myocytes: 86%
Human ESCs (H9) [3]; [5]
  Mesoderm induction: increased mesoderm induction

B1: Noggin: secreted protein that binds and inactivates TGF-beta superfamily signaling proteins (protein, UniProt Q13253 28-232, looked up)
Noggin: QHYLHIRPAPSDNLPLVDLIEHPDPIFDPKEKDLNETLLRSLLGGHYDPGFMATSPPEDRPGGGGGAAGGAEDLAELDQLLRQRPSGAMPSEIKGLEFSEGLAQGKKQRLSKKLRRKLQMWLWSQTFCPVLYAWNDLGSRFWPRYVKVGSCFSKRSCSVPEGMVCKPSKSVHLTVLRWRCQRRGGQRCGWIPIQYPIISECKCSC
hESCs; Noggin treatment during day 3-5
  Effect on cardiac lineage cells: expanded more cardiac lineage cells
